Target: T1, hTAS1R1 Y220A/rTAS1R3 (UniProt Q7RTX1+Q923K1, Y220A)
T1 construct: UniProtKB number Q7RTX1–1); The cDNA coding region of rTAS1R3 was synthesized with optimized-codon usage for human expression; expressed in transfected cells; host or cells: HEK293T/17
T1 sequence (Q7RTX1 21-841 Y220A): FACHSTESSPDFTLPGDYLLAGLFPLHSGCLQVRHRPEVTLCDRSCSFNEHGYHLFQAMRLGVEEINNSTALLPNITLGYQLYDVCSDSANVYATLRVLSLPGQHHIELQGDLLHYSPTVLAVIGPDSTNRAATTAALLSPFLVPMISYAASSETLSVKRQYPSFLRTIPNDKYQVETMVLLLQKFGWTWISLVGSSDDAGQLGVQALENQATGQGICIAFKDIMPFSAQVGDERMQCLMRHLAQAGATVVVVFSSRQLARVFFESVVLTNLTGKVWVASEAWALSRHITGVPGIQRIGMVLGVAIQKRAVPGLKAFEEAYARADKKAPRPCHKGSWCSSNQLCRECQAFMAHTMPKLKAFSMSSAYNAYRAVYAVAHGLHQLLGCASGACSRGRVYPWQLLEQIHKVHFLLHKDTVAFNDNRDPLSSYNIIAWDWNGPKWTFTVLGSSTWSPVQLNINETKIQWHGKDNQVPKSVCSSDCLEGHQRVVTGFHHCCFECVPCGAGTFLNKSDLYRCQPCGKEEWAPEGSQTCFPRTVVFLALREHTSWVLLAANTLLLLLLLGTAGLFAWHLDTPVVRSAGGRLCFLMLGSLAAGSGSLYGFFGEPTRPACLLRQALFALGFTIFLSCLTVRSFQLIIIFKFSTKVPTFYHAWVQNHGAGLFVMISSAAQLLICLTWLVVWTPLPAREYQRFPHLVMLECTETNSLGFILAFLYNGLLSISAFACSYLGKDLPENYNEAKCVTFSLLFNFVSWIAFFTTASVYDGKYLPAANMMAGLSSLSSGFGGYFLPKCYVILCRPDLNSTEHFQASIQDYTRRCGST
T1 sequence (Q923K1 21-858): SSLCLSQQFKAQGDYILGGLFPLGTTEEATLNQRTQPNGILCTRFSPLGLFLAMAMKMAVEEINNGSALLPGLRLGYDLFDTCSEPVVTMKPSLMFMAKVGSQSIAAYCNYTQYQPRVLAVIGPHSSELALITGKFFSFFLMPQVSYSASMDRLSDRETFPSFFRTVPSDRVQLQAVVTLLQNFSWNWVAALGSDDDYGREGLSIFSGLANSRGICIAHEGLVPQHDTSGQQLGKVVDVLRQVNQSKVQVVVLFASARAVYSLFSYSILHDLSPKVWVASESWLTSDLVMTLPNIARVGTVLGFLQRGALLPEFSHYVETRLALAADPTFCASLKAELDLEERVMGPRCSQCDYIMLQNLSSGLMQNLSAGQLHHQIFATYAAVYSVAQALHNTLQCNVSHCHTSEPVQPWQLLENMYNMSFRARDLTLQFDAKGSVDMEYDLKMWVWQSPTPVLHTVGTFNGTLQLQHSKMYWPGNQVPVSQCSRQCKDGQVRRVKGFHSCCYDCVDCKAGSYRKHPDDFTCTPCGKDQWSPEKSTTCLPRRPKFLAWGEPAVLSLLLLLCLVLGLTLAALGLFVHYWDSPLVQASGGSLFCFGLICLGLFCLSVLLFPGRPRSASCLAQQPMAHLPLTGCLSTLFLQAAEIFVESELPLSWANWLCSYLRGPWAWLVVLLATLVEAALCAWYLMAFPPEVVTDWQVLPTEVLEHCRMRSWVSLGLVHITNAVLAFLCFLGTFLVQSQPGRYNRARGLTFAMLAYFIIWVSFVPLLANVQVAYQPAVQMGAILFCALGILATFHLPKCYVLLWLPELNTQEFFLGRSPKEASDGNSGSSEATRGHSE
Test: Calcium assay, hTAS1R1 mutant co-expressed with rTAS1R3
Type: cell-based, human, rat
Conditions: for response to the agonist alone, vs WT: Y220A

| Compound | response to the agonist alone, vs WT | EC50 [mM] |
| --- | --- | --- |
| CCCC(CCC)NC(=O)c1ccc2c(c1)OCO2 [S807, N-(heptan-4-yl)benzo[d][1,3]dioxole-5-carboxamide, reference compound] | strongly affected |  |
| N[C@@H](CCC(=O)N[C@@H](CS)C(=O)NCC(=O)O)C(=O)O [GSH, γ-L-glutamyl-L-cysteinyl-glycine] | fully abolished | > 30 |
| N[C@@H](CCC(=O)O)C(=O)O [L-Glu, L-glutamic acid, reference compound] | completely suppressed |  |

Reference: PMC12615753, “Glutathione as a taste modulator: molecular mechanisms of interaction with umami and sweet taste receptors” (Food Chemistry: Molecular Sciences, 2025)
